Among the data in ChEMBL document CHEMBL1158287, “Identification of ent-16 beta, 17-dihydroxykauran-19-oic acid as an anti-HIV principle and isolation of the new diterpenoids annosquamosins A and B from Annona squamosa” (J Nat Prod, 1996) are Activity, selectivity ratio and EC50 values, retold here.

≈ marks a conversion by molar mass, not a printed value. Calls of active or inactive are those of the source. The rule behind the calls is not given here.

The subject of the first data set is Human immunodeficiency virus 1. As to the kind of experiment: Antiviral activity against HIV1 3B replication in human H9 cells up to 100 ug/mL after 3 days by p24 antigen capture assay.
Conditions: not given
The format is functional, organism-based.
On to `C[C@@]12CCC[C@@](C)(C=O)[C@H]1CC[C@@]13C[C@H](CC[C@H]12)[C@H](C(=O)O)C3`, for which the outcome was inactive. The same measure, in the same setting: the result for `C[C@@]12CCC[C@@](C)(O)[C@H]1CC[C@@]13C[C@H](CC[C@H]12)[C@H](C(=O)O)C3` reads “inactive”; that for `C=C1C[C@@]23CC[C@@H]4[C@](C)(CO)CCC[C@@]4(C)[C@@H]2CC[C@H]1C3`, “inactive”.

As to `CC(=O)OC[C@]1(O)C[C@@]23CC[C@H]4[C@@](C)(CCC[C@@]4(C)C=O)[C@@H]2CC[C@H]1C3`, the outcome was inactive. Same read-out and setting: the same measure for `C[C@@]12CCC[C@@](C)(C=O)[C@H]1CC[C@]13C[C@@H](CO)[C@@H](CC[C@H]12)C3`: “inactive”; for `C[C@@]12CCC[C@@](C)(C=O)[C@H]1CC[C@@]13C[C@@H](CC[C@H]12)[C@](O)(CO)C3`: “inactive”.

Regarding `C[C@@]12CCC[C@@](C)(C(=O)O)[C@H]1CC[C@]13CC(CO)[C@@H](CC[C@H]12)C3` (mixture of isomers), the result was inactive. The same measure, in the same setting: the same measure for `C[C@@]12CCC[C@@](C)(C(=O)O)[C@H]1CC[C@@]13C[C@H](CC[C@H]12)[C@@](O)(CO)C3`: “inactive”; for `C[C@@]12CCC[C@@](C)(O)[C@H]1CC[C@@]13C[C@H](CC[C@H]12)[C@](O)(CO)C3`: “inactive”.

In the case of `C[C@@]1(CO)CCC[C@]2(C)[C@@H]1CC[C@@]13C[C@H](CC[C@H]12)[C@](O)(CO)C3`, the result was inactive. Still for that read-out and setting: the same measure for `C=C1C[C@@]23CC[C@H]4[C@@](C)(CCC[C@@]4(C)C(=O)O)[C@@H]2CC[C@@H]1C3`: “inactive”; for `CC(=O)OC[C@@H]1C[C@@]23CC[C@H]4[C@@](C)(CCC[C@@]4(C)C(=O)O)[C@@H]2CC[C@H]1C3`: “inactive”.

Test system in another data set: not listed separately
As to the kind of experiment: Therapeutic index, ratio of inhibition of human H9 cells to EC50 for HIV1 3B.
Conditions: not given
It counts as cell-based.
In the case of `C[C@@]12CCC[C@@](C)(C(=O)O)[C@H]1CC[C@@]13C[C@@H](CC[C@H]12)[C@](O)(CO)C3`, the selectivity ratio was above 5.

The test system of the next data set is Human immunodeficiency virus 1. As to the kind of experiment: Antiviral activity against HIV1 3B replication in human H9 cells after 3 days by p24 antigen capture assay. The following applies: Human immunodeficiency virus 1, 3B, H9, 72 h. The format is functional, organism-based.
A word on the EC50: it is the concentration giving half of the maximal effect. On to `C[C@@]12CCC[C@@](C)(C(=O)O)[C@H]1CC[C@@]13C[C@@H](CC[C@H]12)[C@](O)(CO)C3`, for which the EC50 is 0.8 mg/L (≈ 2.38 µM).
